System: L. starkeyi (51-55)
Test: Encapsulation of curcumin into cultured yeast, lipogenesis induced or suppressed
Assay type: physicochemical, Lipomyces starkeyi
Conditions: vacuum infused, 35% ethanol
Text: Increased lipid content both improves the relative encapsulation efficiency of hydrophobic bioactives and the oxidative stability of encapsulated bioactives. In this aim, three strains (Saccharomyces cerevisiae, Candida utilis, Phaffia rhodozyma) of yeast with high and low lipid content (high lipid ascomycete and Saccharomyces cerevisiae (low lipid)) are selected. Similarly, and two strains of algal cells are selected (Chlorella minutissima (UTEX 2341), Chlorella sorokiniana (UTEX 2805). The yeast and algal cells are cultured to achieve varying levels of lipid content by influencing the extracellular nutrients, e.g. in the case of algal cells, deprivation of nitrogen in extracellular media can shift the metabolism to generate lipids, with varying levels of nitrogen, intracellular lipid content is modulated. The intracellular lipids are extracted from freeze dried yeast and algal cells and measured using established gravimetric methods. To induce lipogenesis, 5 mL of the pre-culture are transferred into a 500 mL baffled conical flask with 95 mL of media A (50 g/L glucose, 1.5 g/L yeast extract, 0.5 g/L NH4Cl, 7.0 g/L KH2PO4, 2.5 g/L Na2HPO4.2H2O, 1.5 g/L MgSO4.7H2O, 0.08 g/L FeCl3.6H2O, 10.0 mg/L ZnSO4.7H2O, 0.07 mg/L MnSO4.H2O, 0.1 mg/L CuSO4, 0.063 mg/L Co(NO3)2) and closed with a foam cap. […]

Mass of Encapsulated Bioactive in Yeast (lipogenesis Induced): 0.559 mg/g
Mass of Encapsulated Bioactive in Yeast (lipogenesis Suppressed): 0.466 mg/g
Compound: COc1cc(/C=C/C(=O)CC(=O)/C=C/c2ccc(O)c(OC)c2)ccc1O [Curcumin, curcumin]
